According to patent US20080107619A1, “Carbohydrate based cellulase inhibitors as feeding stimulants in termites” (University of Florida Research Foundation, Inc., priority 2006, published 2008):

Key:
[1] = target: T1, Cel7A cellobiohydrolase (exoglucanase) (Trichoderma reesei, UniProt P62694); conditions: non-competitive inhibition; Vonhoff et al.; read-out: I50; cited from earlier work
T1 sequence (P62694 18-513): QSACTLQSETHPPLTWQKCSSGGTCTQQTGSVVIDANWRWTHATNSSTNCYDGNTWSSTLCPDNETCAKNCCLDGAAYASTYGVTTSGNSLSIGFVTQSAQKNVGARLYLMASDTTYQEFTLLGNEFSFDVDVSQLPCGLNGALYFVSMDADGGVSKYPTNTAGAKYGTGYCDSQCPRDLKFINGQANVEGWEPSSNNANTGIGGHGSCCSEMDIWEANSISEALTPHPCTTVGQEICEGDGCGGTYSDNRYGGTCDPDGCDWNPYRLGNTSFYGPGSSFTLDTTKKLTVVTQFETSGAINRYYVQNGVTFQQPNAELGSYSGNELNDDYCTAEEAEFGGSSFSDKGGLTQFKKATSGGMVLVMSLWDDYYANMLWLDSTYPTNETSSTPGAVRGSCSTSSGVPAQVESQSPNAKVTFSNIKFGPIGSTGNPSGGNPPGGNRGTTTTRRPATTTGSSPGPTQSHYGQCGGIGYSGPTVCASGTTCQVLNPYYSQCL

[2] = system: exoglucanase; experiment: Post-feeding inhibition of exoglucanase activity in whole-body homogenates; type: in vivo, R. flavipes; conditions: after 24 days feeding at 5 mM and above
Description: (§1) Whole body homogenates were used for optimization and post-feeding inhibition studies. Here, 10-15 termite workers were homogenized in 1 to 1.5 ml ice-cold homogenization buffer with a Teflon-glass (Potter-Elvehjem) homogenizer powered by a motorized electric stirrer (Fisher Scientific). After homogenization, both gut region and whole-body preparations were centrifuged at 15,000× g and 4° C. for 15 min. The resulting supernatants from the different gut regions were used directly for subsequent enzyme assays. Supernatants from whole-body homogenates were passed through glass wool to remove excess lipids before proceeding with cellulase activity assays.
Cellulase activity assays were adapted from Han et al. in “Characterization of a bifunctional cellulase and its structural gene,” J. Biol. Chem. 270 (1995) 26012-26019, with optimization for a 96-well microplate format. […] Color was allowed to develop on ice for 15 min before measuring absorbance at 540 nm relative to a glucose standard curve.
The hydrolysis product of both the pNPC and pNPG substrates is p-nitrophenol, which is yellow in color and permits for direct quantification of activity in a kinetic assay. pNPC and pNPG assays were initially incubated at 32° C. for 20 min before measuring the release of the product, p-nitrophenol, at 420 nm. […]

[3] = target: T2, Cel5A enzyme (Salipaludibacillus agaradhaerens, UniProt O85465); conditions: Varrott et al.; read-out: I50 value; cited from earlier work
T2 sequence (O85465 27-400): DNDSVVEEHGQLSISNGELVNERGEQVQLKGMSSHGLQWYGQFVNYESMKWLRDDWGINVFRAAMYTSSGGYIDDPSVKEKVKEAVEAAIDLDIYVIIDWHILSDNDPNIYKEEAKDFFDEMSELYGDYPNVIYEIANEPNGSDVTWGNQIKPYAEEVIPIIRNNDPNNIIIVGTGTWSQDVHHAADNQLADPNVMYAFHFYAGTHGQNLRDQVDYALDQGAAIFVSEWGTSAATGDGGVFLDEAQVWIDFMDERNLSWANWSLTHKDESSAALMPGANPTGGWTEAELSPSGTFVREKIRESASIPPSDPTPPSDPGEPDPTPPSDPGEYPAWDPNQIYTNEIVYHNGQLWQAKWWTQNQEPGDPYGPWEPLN

[4] = system: endoglucanase; experiment: Post-feeding inhibition of endoglucanase activity in whole-body homogenates; type: in vivo, R. flavipes; conditions: after 24 days feeding, various concentrations; FIGS. 11A-11C
Description: as §1
Cellulase activity assays were adapted from Han et al. in “Characterization of a bifunctional cellulase and its structural gene,” J. Biol. Chem. 270 (1995) 26012-26019, with optimization for a 96-well microplate format. The model substrates used to test for endoglucanase, exoglucanase and β-glucosidase activities were CMC (FIG. 1A), pNPC (FIG. 1B) and pNPG (FIG. 1C), respectively. The substrate concentration used for CMC was 0.5% (w/v), while pNPG and pNPC were used at 4 mM. All substrates were diluted in homogenization buffer. […] Color was allowed to develop on ice for 15 min before measuring absorbance at 540 nm relative to a glucose standard curve. […]

[5] = target: T3, 6A cellobiohydrolase (exoglucanase) (Trichoderma reesei, UniProt P07987); conditions: non-competitive inhibition; Vonhoff et al.; read-out: I50; cited from earlier work
T3 sequence (P07987 25-471): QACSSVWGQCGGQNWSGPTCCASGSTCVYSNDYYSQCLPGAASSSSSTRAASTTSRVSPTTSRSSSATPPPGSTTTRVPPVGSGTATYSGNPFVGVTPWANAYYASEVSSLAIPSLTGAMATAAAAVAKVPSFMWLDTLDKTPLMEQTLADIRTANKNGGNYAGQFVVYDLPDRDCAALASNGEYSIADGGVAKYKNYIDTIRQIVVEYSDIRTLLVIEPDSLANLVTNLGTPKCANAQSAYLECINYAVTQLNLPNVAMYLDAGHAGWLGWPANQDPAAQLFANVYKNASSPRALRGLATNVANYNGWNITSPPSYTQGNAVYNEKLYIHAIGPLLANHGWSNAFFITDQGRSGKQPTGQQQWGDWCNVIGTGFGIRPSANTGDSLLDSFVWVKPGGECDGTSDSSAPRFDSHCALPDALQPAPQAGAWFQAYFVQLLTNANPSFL

OC[C@@H]1[C@@H](O[C@@H]2O[C@H](CO)[C@@H](O)[C@H](O)[C@H]2O)[C@H](O)[C@@H](O)c2nccn21 [CBI, cellobioimidazole]
IC50 [1]: 130 µM | Exoglucanase activity, maximal reduction relative to controls [2]: ~75% | IC50 [3]: 88 µM | endoglucanase activity after feeding, reduction relative to controls [4]: significant | IC50 [5]: 1 µM
